Results published in patent US20170348331A1, “METHODS AND COMPOSITIONS FOR […] LEVELS” (Children's Hospital & Research Center at Oakland, priority 2013, published 2017).

Tests used:
TPH1 [1] = assay: TPH1 expression in peripheral blood cells of a pregnant mother by ELISA; format: in vivo, human; details: pregnant mother with elevated TPH1, ~1,000 IU per 11.3 kg per day, after 4 weeks
Experimental: TPH1 expression levels are determined from peripheral blood cells by ELISA analysis from a pregnant mother. […] This means that the mother has increased risk of having autistic child. Vitamin D is then be administered ˜1,000 IU per 11.3 kg per day. After 4 weeks of the vitamin D treatment, TPH1 expression levels are assayed in peripheral blood by ELISA analysis again. […] The vitamin D treatment will continue through pregnancy and breastfeeding. This implies the risk of having autistic child is reduced.

TPH1 [2] = assay: TPH1 expression in placental tissue homogenate of a pregnant person by ELISA; format: in vivo, human; details: pregnant person with elevated TPH1, about 1,000 IU per 11.3 kg per day, after 4 weeks
Experimental: TPH1 expression levels are determined from placental tissue homogenate obtained from a pregnant person by ELISA analysis. […] This means that the parent has increased risk of having child with autistic spectrum disorder. Vitamin D is then administered to the pregnant person at about 1,000 IU per 11.3 kg per day. After 4 weeks of the vitamin D treatment, TPH1 expression levels are assayed in placental tissue homogenate by ELISA analysis again. […] This implies the risk of having autistic child is reduced.

[3] = system: regulatory T cells (Tregs); details: vitamin D supplementation; cited from earlier work
melatonin production = details: increasing doses of vitamin D supplementation; cited from earlier work

## Vitamin D
TPH1 [1]
  TPH1 expression level in peripheral blood: decreased to normal range
TPH1 [2]
  TPH1 expression level in placental tissue homogenate: decreased to normal range
[3]
  Tregs in peripheral blood: significantly increase Tregs
Melatonin production
  melatonin production: dose-dependent decrease
